Measured values from paper PMC9026853, “Design, Physicochemical Characterization, and In Vitro Permeation of Innovative Resatorvid Topical Formulations for Targeted Skin Drug Delivery” (Pharmaceutics, 2022).
“And” between values parts separate entries of the source, which are not always exact repeats. Equal values may be shown once.

Experiments:
[1] = In vitro cell dose-response (resazurin viability) in 2D culture, HaCaT; assay type: cell-based, human; settings: human, HaCaT cells (transformed keratinocytes), 2D culture; concentrations at 0.01 µM and 0.1 µM
Description: (§1) The effects of raw resatorvid on the viability of human representative keratinocyte cell lines exposed to concentrations at 1000 μM, 100 μM, 10 μM, 1 µM, 0.1 µM, and 0.01 µM were tested. HaCaT cells (a human transformed keratinocyte from a histologically normal skin cell line) and primary NHEKs (normal human epidermal keratinocyte cells) were used as models of the human epidermis, which generates keratinocytes in the stratum basale and then differentiates into the final barrier layer of the skin, the stratum corneum. The HaCaT cells were grown in Dulbecco’s modified Eagle’s medium (DMEM), Optimized 1×, 10% (v/v) FBS, and Pen-Strep (100 units/mL penicillin, 100 µg/mL) in a humidified incubator at 37 °C and 5% CO2. The NHEK cells were grown in an NHEK growth medium provided by MatTek (Ashland, MA, USA) in a humidified incubator at 37 °C and 5% CO2.
(§2) After confluence, the HaCaT and NHEK cells were seeded in a black 96-well plate at a concentration of 5000 cells in 100 µL of media/well, then incubated for 48 h to allow attachment to the surface of the plates. After 48 h, the cells were then exposed to the different concentrations of resatorvid previously mentioned. The drug solutions were prepared by dissolving raw resatorvid powder in 5% (v/v) DMSO and adequate growth medium to make a solution at 1×. A volume of 100 µL of drug solution was added to each well. […] The fluorescence intensity of resorufin was detected at 544 nm (excitation) and 590 nm (emission) using the Molecular Devices® SpectraMax® M3 Multi-Mode Microplate Reader (Sunnyvale, CA, USA). The relative viability of the cells was calculated as followed by Equation (1):(1) Relative Viability %=Sample flourescence intensity/Control flourescece intensity×100%

[2] = test system: HaCaT cells; experiment: as above; assay type: cell-based, human; settings: for toxicity to HaCaT cells: 0.01-1000 µM raw resatorvid, 72 h exposure as printed in results
Description: as §1, §2

[3] = test system: SKH-1 mice; set-up: method as in PMID 29437671; settings: topical, cited from earlier work
[4] = In vitro oil-water partitioning coefficient (Log-P), 1-octanol/PBS, HPLC; assay type: physicochemical; settings: for Experimental (Log-P): n = 3, mean ± SD; for partition coefficient (Log-P), range over pH: pH 6.5, 7.1, 8.8
Description: The HPLC consisted of a Shimadzu LC-2010A HT liquid chromatograph (Torrance, CA, USA), coupled with a UV–Vis dual wavelength detector. The analysis was performed by a reverse-phase HPLC assay, using a Luna C18, 5 μm column (250 mm × 2 mm) (Phenomenex, Torrance, CA, USA), maintained at 25 °C ± 2 °C. Ultraviolet detection was done at 254 nm. The mobile phase conditions were 50:50 (v/v) acetonitrile: trifluoroacetic acid (0.1% v/v) at a flow rate of 0.3 mL/min. The injection volume was 10 µL. The retention time for resatorvid was ~15.9 min. Quantification was determined using peak area and calculated from a five-point standard curve (0.0625 mg/mL to 1 mg/mL, R^2 = 0.9971). Standards were prepared by volumetric dilution in acetonitrile and stored at 4 °C, protected from light. The modifications made to the method were using a column length of 250 mm × 2 mm instead of 150 mm × 2.1 mm and a mobile phase of 50:50 (v/v) acetonitrile: trifluoroacetic acid (0.1% v/v) instead of 40:60 (v/v) acetonitrile: trifluoroacetic acid (0.1% v/v) as previously reported.
Resatorvid raw powder was weighed out (0.003 g) and placed in 2 dram amber-colored glass vials containing equal volumes (1.5 mL) of 1-octanol and PBS (1×, pH = 7.4) to make a 1 mg/mL solution. Various solutions were made, and the pH was adjusted and maintained at pH values of 6.5, 7.1, 8.8. Adjustments to the pH were made using 0.1 M hydrochloric acid (HCl) solution and 0.1 M sodium hydroxide (NaOH) solution. […] The vials were rotated using a Barnstead/Thermolyne Labquake shaker (Dubuque, IA, USA) for 24 h and left undisturbed in a vertical position for an additional 24 h for phase separation between the aqueous and non-aqueous layers. Then, 200 μL of the organic and aqueous layers were sampled very carefully without disturbing the separation of phases and analyzed via the HPLC method previously mentioned.

[5] = Residual water content by Karl Fisher coulometric titration; assay type: physicochemical; settings: KFT, n = 4, mean ± SD, Table S2
Description: The residual water content of raw resatorvid powder was quantified by coulometric KFT using a TitroLine 750 trace titrator (SI Analytics, Weilheim, Germany). In brief, 1 mL of 0.1% (w/v) of resatorvid in anhydrous methanol was added to the titration cell containing Hydranal® Coulomat AD reagent.

[6] = Particle sizing by SEM image analysis; assay type: physicochemical
From the text: The particle size and surface morphology of raw resatorvid were obtained using scanning electron microscopy (SEM) (FEI, Brno, Czech Republic). The samples were sprinkled onto the double-sided adhesive carbon tabs (Ted Patella, Inc. Redding, CA, USA), which were adhered to aluminum stubs and coated with a 7 nm thin film of gold palladium alloy, using an Anatech Hummer 6.2 (Union City, CA, USA) sputtering system at 20 µA for 90 s under an argon plasma. The electron beam with an accelerating voltage of 30 kV was used at a working distance of approximately 9–12 mm. The SEM images were collected at various magnifications.
Using SEM micrographs, the mean size, standard deviation, and size range of the particles were determined digitally using SigmaScan^TM Pro 5.0.0 (Systat, Inc., San Jose, CA, USA). Representative micrographs of raw resatorvid at 400–5000× magnification were analyzed by measuring the diameter of at least 60 particles per sampling.

[7] = method and reference not given; cited from earlier work
[8] = set-up: method as in PMID 29437671; settings: standardized Franz cell system; cited from earlier work
[9] = test system: primary normal human epidermal keratinocytes (NHEKs); experiment: In vitro cell dose-response (resazurin viability) in 2D culture, NHEK; assay type: cell-based; settings: 0.01-1000 µM raw resatorvid, 72 h exposure as printed in results
Description: as §1, §2

[10] = as above; assay type: cell-based, human; settings: human; all concentrations (0.01-1000 µM); read-out: viability of NHEK cells
Description: as §1, §2

Structure (SMILES): CCOC(=O)C1=CCCC[C@H]1S(=O)(=O)Nc1ccc(F)cc1Cl [resatorvid, ethyl (6R)-6-[N-(2-Chloro-4-fluorophenyl)sulfamoyl]cyclohex-1-ene-1-carboxylate]
- viability at 48 h [1]: ~100%
- toxicity to HaCaT cells [2]: negligible toxicity
- toxicity to HaCaT cells ([2]; listed as Resatorvid): did not show any significant toxicity
- effect on HaCaT cells at higher concentrations ([2]; concentration increased from 1 µM to 1000 µM): cell proliferation was observed
- modulation of UV-induced biomarkers ([3]; acetone solution of TAK-242 (13 mM), SKH-1 mice): successfully modulated UV-induced biomarkers
- UV-induced AP-1 activation ([3]; mice): reduces UV-induced AP-1 activation
- photocarcinogenesis ([3]; mice): inhibits photocarcinogenesis
- Experimental (Log-P) ([4]; At 35 °C, pH = 6.5, 1-octanol/PBS): 1.65 ± 0.029
- Experimental (Log-P) ([4]; At 35 °C, pH = 7.1): 1.68 and 1.68 ± 0.013
- Experimental (Log-P) ([4]; At 35 °C, pH = 8.8): 0.94 ± 0.023
- Experimental (Log-P) ([4]; At Room temperature/ambient temperature, pH = 6.5): 1.58 ± 0.019
- Experimental (Log-P) ([4]; At Room temperature/ambient temperature, pH = 7.1): 1.54 ± 0.149
- Experimental (Log-P) ([4]; At Room temperature/ambient temperature, pH = 8.8): 0.88 ± 0.060
- partition coefficient (Log-P), range over pH ([4]; at 35 °C): 0.94–1.68
- partition coefficient (Log-P), range over pH ([4]; at room/ambient temperature): 0.88–1.58
- Residual Water content [5]: 0.0173 ± 0.0156 %w/w
- average geometric (linear) size of the raw particles [6]: 5.84 µm
- experimentally determined pKa reported [7]: 8.0–8.1
- amount of resatorvid in the lower epidermis (tape strips 4–12), average over time course [8]: 5 µg/cm^2
- time remaining in the skin [8]: at least 8 hr
- toxicity to NHEK cells [9]: negligible toxicity
- toxicity to NHEK cells ([9]; listed as Resatorvid): did not show any significant toxicity
- viability at 48 h [10]: ~100%
